# In ChEMBL document CHEMBL3580537, “Neristatin 1 provides critical insight into bryostatin 1 structure-function relationships” (J Nat Prod, 2015):
# Active and inactive are the calls of the source. The rule behind the calls is not given here.
# Assays:
# U-937 [1] = experiment: Induction of cell attachment of human U937 cells at 0.1 nM to 1000 nM after 60 hrs by particle counter based cell counting assay; format: functional
# U-937 [2] = experiment: Inhibition of PMA-induced TNFalpha secretion in human U937 cells at 0.01 nM to 10000 nM by real time qPCR method; format: functional, cell-based
# Toledo [3] = experiment: Potency index, ratio of IC50 for Merle-43 to IC50 for test compound against human Toledo cells after 72 hrs by particle counter based cell counting assay; format: functional
# U-937 [4] = experiment: Suppression of PMA-induced growth inhibition of human U937 cells at 1000 nM after 72 hrs by particle counter based cell counting assay; format: functional
# U-937 [5] = experiment: Induction of TNFalpha secretion in human U937 cells at 0.01 nM to 10000 nM by real time qPCR method; format: functional, cell-based
# U-937 [6] = experiment: Growth inhibition of human U937 cells at 0.1 nM to 1000 nM after 72 hrs by particle counter based cell counting assay; format: functional
# U-937 [7] = experiment: Inhibition of PMA-induced cell attachment of human U937 cells at 1000 nM after 60 hrs by particle counter based cell counting assay; format: functional
# [8] = Growth inhibition of human Toledo cells after 72 hrs by particle counter based cell counting assay; format: functional
# [9] = target: Protein kinase C alpha type (Homo sapiens, UniProt P17252); experiment: Inhibition of [20-3H]phorbol 12,13-dibutyrate binding to human PKCalpha by scintillation counting based poly(ethylene) glycol precipitation assay
# Toledo [10] = experiment: Potency index, ratio of IC50 for neristatin-1 to IC50 for test compound against human Toledo cells after 72 hrs by particle counter based cell counting assay; format: functional
# U-937 [11] = experiment: Growth inhibition of human U937 cells at 0.1 nM to 3000 nM after 72 hrs by particle counter based cell counting assay; format: functional
# U-937 [12] = experiment: Induction of cell attachment of human U937 cells at 0.1 nM to 3000 nM after 60 hrs by particle counter based cell counting assay; format: functional
# U-937 [13] = experiment: Growth inhibition of human U937 cells at 1000 nM in presence of 10 nM PMA after 72 hrs by particle counter based cell counting assay; format: functional
# U-937 [14] = experiment: Induction of TNFalpha secretion in human U937 cells at 0.01 nM to 10000 nM by real time qPCR method relative to PMA; format: functional
SMILES,Activity (U-937 [1]),inhibition (U-937 [2]),Ratio IC50 (Toledo [3]),inhibition (U-937 [4]),Activity (U-937 [5]),growth inhibition (GI) (U-937 [6]),inhibition (U-937 [7]),IC50 [8] [nM],Ki [9] [nM],Ratio IC50 (Toledo [10]),growth inhibition (GI) (U-937 [11]),Activity (U-937 [12]),growth inhibition (GI) (U-937 [13]),Activity (U-937 [14]) [%]
COC(=O)/C=C1/C[C@H]2C[C@]3(O)O[C@H](C[C@@H](O)CC(=O)O[C@H](C)[C@H](O)C[C@@H]4C[C@@H]5CC(=O)O[C@@]5(O4)C(=O)C(C)(C)/C=C/[C@@H](C1)O2)C[C@H](OC(=O)C(C)(C)C)C3(C)C,inactive,Active,2.5,Active,inactive,inactive,Active,1.58,21.2,–,–,–,–,–
CCC/C=C/C=C/C(=O)O[C@H]1/C(=C/C(=O)OC)C[C@H]2C[C@H]([C@@H](C)O)OC(=O)C[C@H](O)C[C@@H]3C[C@H](OC(C)=O)C(C)(C)[C@](O)(C[C@@H]4C/C(=C/C(=O)OC)C[C@H](/C=C/C(C)(C)[C@]1(O)O2)O4)O3 [BRYOSTATIN 1],inactive,Active,–,Active,inactive,inactive,Active,–,0.48,17,–,–,–,–
CCCCCCCC(=O)O[C@H]1/C(=C/C(=O)OC)C[C@H]2C[C@@H](O)[C@@H](C)OC(=O)C[C@H](O)C[C@@H]3C[C@H](OC(C)=O)C(C)(C)[C@](O)(CCOC(=O)/C=C/C(C)(C)[C@]1(O)O2)O3,–,–,–,–,–,–,–,–,–,–,Active,Active,Active,60
CCCCCCCCCCCCCC(=O)O[C@@H]1[C@@H](C)[C@@]2(O)[C@@H](C=C(CO)C[C@]3(O)C(=O)C(C)=C[C@@H]23)[C@@H]2C(C)(C)[C@]12OC(C)=O [PHORBOL MYRISTATE ACETATE],Active,–,–,–,Active,50%,–,–,–,–,–,–,–,–
